Assay results taken from patent US6540977B1, “Cyanidin compositions and therapeutic and diagnostic uses therefor” (Medarex, Inc., priority 1996, dated 2003).

Target: T1, human FcγRI (Homo sapiens, UniProt P12314)
T1 construct: expressed in transfected cells; host or cells: mouse IIA1.6 B cells
Test: Staining of IIA1.6 B cell transfectants expressing human FcγRI
Assay type: binding
Settings: unconjugated Cy5; FcγRI transfectants vs untransfected IIA1.6
Procedure: To assess the specificity of binding of PE-Cy5 conjugates to FcγRI, a series of FcR-transfectants, each transfectant engineered to express one FcR molecular type, was tested. Recipient IIA1.6 cells mouse B cells are devoid of IgG receptors; samples were transfected with each of the genes encoding the different human Fc receptors for IgG (FcγRI, CD64; Van Vugt M J, et al., 1996, Blood 87:3593; FcγRIIa, CD32; FcγRIIb1, CD32, Van den Herik-Oudijk I E, et al., 1995, Blood 85:2202) and for IgA receptor FcαR, CD89 (Morton H C, et al., 1995, J Biol Chem 270:29781) derived from the A20 B cell lymphoma (Morton, H C, et al., supra). Transfectants were stained with different PE-Cy5 mAb conjugates (covalently linked to antibodies to CD3, CD4, or CD8). […]
Untransfected IIA1.6 B-cells and these cells transfected with the gene for human FcγRI (see references, supra), 2×10^5 cells in 20 μl per test, were stained for one hour at 4° C. with 10 μl Cy5. […] All fluorescence experiments were performed using band filter gates for excitation and emission wavelengths appropriate for PE-Cy5 described supra, so that diminished activity for Cy5 in comparison with PE and PE-Cy5 is due to comparatively low absorption by Cy5 at 488 nm.

T1 sequence (P12314 16-374): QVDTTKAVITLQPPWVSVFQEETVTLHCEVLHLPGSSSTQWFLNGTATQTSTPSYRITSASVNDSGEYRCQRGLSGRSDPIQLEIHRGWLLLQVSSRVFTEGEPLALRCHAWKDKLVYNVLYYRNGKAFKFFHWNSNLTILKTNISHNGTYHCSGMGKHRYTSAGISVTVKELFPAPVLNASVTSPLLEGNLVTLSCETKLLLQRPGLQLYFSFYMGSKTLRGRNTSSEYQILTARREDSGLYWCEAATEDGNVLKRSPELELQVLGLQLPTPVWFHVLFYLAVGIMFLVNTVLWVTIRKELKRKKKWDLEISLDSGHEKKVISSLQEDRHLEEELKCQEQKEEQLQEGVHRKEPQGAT

**Q.** With “5,5′-bis-sulfo-1,1′-(ε-carboxyphenyl)-3,3,3′,3′-tetramethylindodicarbocyanin-disuccinimidyl ester [Cy5]” as the substance, how does the “mean fluorescent intensity of transfectants versus control cells” value read?
**A.** at least an order of magnitude greater
